From patent publication US11820766B2, “Monoacylglycerol lipase modulators” (Janssen Pharmaceutica NV, priority 2018, dated 2023)

Molecular target: T1, human MGL from HeLa cells (Homo sapiens, UniProt Q99685)
T1 construct: combining endogenously expressed MGL from HeLa cells with test compounds; endogenous in cells; host or cells: HeLa cells / cell homogenates
T1 sequence (Q99685 1-303): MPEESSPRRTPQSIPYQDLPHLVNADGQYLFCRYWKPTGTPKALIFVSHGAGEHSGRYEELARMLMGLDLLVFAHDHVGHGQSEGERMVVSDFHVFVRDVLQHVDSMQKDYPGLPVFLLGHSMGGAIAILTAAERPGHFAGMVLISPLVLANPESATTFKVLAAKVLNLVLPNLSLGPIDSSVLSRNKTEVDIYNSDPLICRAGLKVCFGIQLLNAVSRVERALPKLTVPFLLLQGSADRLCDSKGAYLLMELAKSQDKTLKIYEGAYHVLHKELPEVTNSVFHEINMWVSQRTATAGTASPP
Test: In vitro MGL activity assay: [glycerol-1,3-3H]-oleyl glycerol cleavage by MGL from HeLa cells
Assay type: biochemical
Details: 300 nM [Glycerol-1,3-3H]-oleyl glycerol, one hour
Source text: MGL is the predominant hydrolase in HeLa cells/cell homogenates.

Question: `Cc1nccn2nc(C3CC3)c(C(=O)N3CCc4c(nn(C)c4-c4cc(F)c(F)c(F)c4)[C@@H]3C)c12` [Example 447, (2-Cyclopropyl-4-methyl-pyrazolo[1,5-a]pyrazin-3-yl)-[(7S)-2,7-dimethyl-3-(3,4,5-trifluorophenyl)-5,7-dihydro-4H-pyrazolo[3,4-c]pyridin-6-yl]methanone] was tested. Which IC50 did it give?
Answer: 392 nM

Question: Which IC50 does the source give for `C[C@H]1c2nn(C)c(-c3cc(F)c(F)c(F)c3)c2CCN1C(=O)c1cnn(C)c1C1CC1(F)F` (single isomer, unassigned) [Example 338, (5-((S*)-2,2-Difluorocyclopropyl)-1-methyl-1H-pyrazol-4-yl)((S)-2,7-dimethyl-3-(3,4,5-trifluorophenyl)-2,4,5,7-tetrahydro-6H-pyrazolo[3,4-c]pyridin-6-yl)methanone] here?
Answer: 14.2 nM

Question: `C[C@H]1c2nn(C)c(-c3cc(F)c(F)c(F)c3)c2CCN1C(=O)c1cnn(C)c1C1(C)CC1` [Example 334, [(7S)-2,7-Dimethyl-3-(3,4,5-trifluorophenyl)-5,7-dihydro-4H-pyrazolo[3,4-c]pyridin-6-yl]-[1-methyl-5-(1-methylcyclopropyl)pyrazol-4-yl]methanone] was tested. Which IC50 did it give?
Answer: 2790 nM

Question: With `Cc1c(C(=O)N2CCc3c(nn(C)c3-c3cc(F)c(F)c(F)c3)[C@@H]2C)ccn1C` [Example 351, (1,2-Dimethylpyrrol-3-yl)-[(7S)-2,7-dimethyl-3-(3,4,5-trifluorophenyl)-5,7-dihydro-4H-pyrazolo[3,4-c]pyridin-6-yl]methanone] as the compound, how does the IC50 read?
Answer: 8.9 nM

Question: Which IC50 does the source give for `C[C@H]1c2nn(C)c(-c3cc(F)c(F)c(F)c3)c2CCN1C(=O)c1c(C(F)F)nc2ccccn12` [Example 412, [2-(Difluoromethyl)imidazo[1,2-a]pyridin-3-yl]-[(7S)-2,7-dimethyl-3-(3,4,5-trifluorophenyl)-5,7-dihydro-4H-pyrazolo[3,4-c]pyridin-6-yl]methanone] here?
Answer: 12.9 nM

Question: How did the IC50 turn out when `C[C@H]1c2nn(C)c(-c3ccc(F)cc3F)c2CCN1C(=O)c1ccc2ncccc2c1` [Example 502, [(7S)-3-(2,4-Difluorophenyl)-2,7-dimethyl-5,7-dihydro-4H-pyrazolo[3,4-c]pyridin-6-yl]-(6-quinolyl)methanone] was run?
Answer: 106 nM

Question: With `C[C@H]1c2nn(C)c(-c3ccc(F)c(F)c3F)c2CCN1C(=O)c1ccc2ncccc2c1` [Example 515, [(7S)-2,7-Dimethyl-3-(2,3,4-trifluorophenyl)-5,7-dihydro-4H-pyrazolo[3,4-c]pyridin-6-yl]-(6-quinolyl)methanone] as the compound, how does the IC50 read?
Answer: 52.2 nM

Question: Which IC50 does the source give for `C[C@H]1c2nn(C)c(-c3cc(F)c(F)c(F)c3)c2CCN1C(=O)c1cnc2c(c1)CCCO2` [Example 563, 3,4-Dihydro-2H-pyrano[2,3-b]pyridin-6-yl-[(7S)-2,7-dimethyl-3-(3,4,5-trifluorophenyl)-5,7-dihydro-4H-pyrazolo[3,4-c]pyridin-6-yl]methanone] here?
Answer: 329 nM

Question: How did the IC50 turn out when `C[C@H]1c2nn(C)c(-c3cc(F)c(F)c(F)c3)c2CCN1C(=O)c1n[nH]c2cc(F)ccc12` [Example 363, [(7S)-2,7-Dimethyl-3-(3,4,5-trifluorophenyl)-5,7-dihydro-4H-pyrazolo[3,4-c]pyridin-6-yl]-(6-fluoro-1H-indazol-3-yl)methanone] was run?
Answer: 44.1 nM

Question: `C[C@H]1c2nn(C)c(-c3cc(F)c(F)c(F)c3)c2CCN1C(=O)c1c(F)cnc2[nH]ccc12` [Example 369, [(7S)-2,7-Dimethyl-3-(3,4,5-trifluorophenyl)-5,7-dihydro-4H-pyrazolo[3,4-c]pyridin-6-yl]-(5-fluoro-1H-pyrrolo[2,3-b]pyridin-4-yl)methanone] was tested. Which IC50 did it give?
Answer: 1.88 nM

Same assay, conditions: 300 nM [Glycerol-1,3-3H]-oleyl glycerol, one hour incubation

Question: How did the IC50 turn out when `Cn1nc2c(c1C1CC1)CCN(C(=O)c1cccc3ccccc13)C2` [Example 3, (3-Cyclopropyl-2-methyl-2,4,5,7-tetrahydro-6H-pyrazolo[3,4-c]pyridin-6-yl)(naphthalen-1-yl)methanone] was run?
Answer: 799 nM

Question: With `C[C@H]1c2nn(C)c(-c3cc(F)c(F)c(F)c3)c2CCN1C(=O)c1cccc2cccnc12` [Example 236, (S)-(2,7-Dimethyl-3-(3,4,5-trifluorophenyl)-2,4,5,7-tetrahydro-6H-pyrazolo[3,4-c]pyridin-6-yl)(quinolin-8-yl)methanone] as the compound, how does the IC50 read?
Answer: 5.79 nM

Question: Which IC50 does the source give for `Cc1ccc(-c2c3c(nn2C)[C@H](C)N(C(=O)c2ccc4nccnc4c2)CC3)cc1Cl` [Example 183, (S)-(3-(3-Chloro-4-methylphenyl)-2,7-dimethyl-2,4,5,7-tetrahydro-6H-pyrazolo[3,4-c]pyridin-6-yl)(quinoxalin-6-yl)methanone] here?
Answer: 26.9 nM

Question: Which IC50 does the source give for `C[C@H]1c2nn(C)c(-c3cccc(Cl)c3)c2CCN1C(=O)c1cnc2ccoc2c1` (single isomer, unassigned) [Example 128] here?
Answer: 26.3 nM

Question: How did the IC50 turn out when `C[C@@H]1c2nn(C)c(-c3cc(F)cc(Cl)c3)c2CCN1C(=O)c1ccc2ncccc2c1` [Example 179, (R)-(3-(3-Chloro-5-fluorophenyl)-2,7-dimethyl-2,4,5,7-tetrahydro-6H-pyrazolo[3,4-c]pyridin-6-yl)(quinolin-6-yl)methanone] was run?
Answer: 593 nM

Question: For `COc1cc(OC)cc(C(=O)N2CCc3c(nn(C)c3-c3ccccc3)C2)c1` [Example 11, (3,5-Dimethoxyphenyl)-(2-methyl-3-phenyl-5,7-dihydro-4H-pyrazolo[3,4-c]pyridin-6-yl)methanone], which IC50 is on record?
Answer: 187 nM

Question: How did the IC50 turn out when `C[C@@H]1c2nn(C)c(-c3cc(F)c(F)c(F)c3)c2CCN1C(=O)c1ccc2ncccc2c1` [Example 235, (R)-(2,7-Dimethyl-3-(3,4,5-trifluorophenyl)-2,4,5,7-tetrahydro-6H-pyrazolo[3,4-c]pyridin-6-yl)(quinolin-6-yl)methanone] was run?
Answer: 3660 nM

Question: `COc1nccc(C(=O)N2CCc3c(nn(C)c3-c3cc(F)c(F)c(F)c3)[C@@H]2C)c1F` [Example 315, [(7S)-2,7-Dimethyl-3-(3,4,5-trifluorophenyl)-5,7-dihydro-4H-pyrazolo[3,4-c]pyridin-6-yl]-(3-fluoro-2-methoxy-4-pyridyl)methanone] was tested. Which IC50 did it give?
Answer: 42.4 nM

Question: `C[C@H]1c2nn(C)c(-c3cc(F)c(F)c(F)c3)c2CCN1C(=O)c1cccc(-n2cccn2)n1` [Example 320, [(7S)-2,7-Dimethyl-3-(3,4,5-trifluorophenyl)-5,7-dihydro-4H-pyrazolo[3,4-c]pyridin-6-yl]-(6-pyrazol-1-yl-2-pyridyl)methanone] was tested. Which IC50 did it give?
Answer: 79 nM

Question: With `C[C@H]1c2nn(-c3ccccc3)c(-c3ccccc3)c2CCN1C(=O)c1ccc2ncccc2c1` (single isomer, unassigned) [Example 115] as the compound, how does the IC50 read?
Answer: 44.3 nM

Question: How did the IC50 turn out when `Cn1nc2c(c1-c1ccccc1)CCN(C(=O)c1ccnc3c(F)cccc13)C2` [Example 96, (8-Fluoroquinolin-4-yl)(2-methyl-3-phenyl-2,4,5,7-tetrahydro-6H-pyrazolo[3,4-c]pyridin-6-yl)methanone] was run?
Answer: 258 nM

Question: With `C[C@H]1c2nn(C)c(-c3cc(F)c(F)c(F)c3)c2CCN1C(=O)c1cncc2c1ccn2C` [Example 224, (S)-(2,7-Dimethyl-3-(3,4,5-trifluorophenyl)-2,4,5,7-tetrahydro-6H-pyrazolo[3,4-c]pyridin-6-yl)(1-methyl-1H-pyrrolo[2,3-c]pyridin-4-yl)methanone] as the compound, how does the IC50 read?
Answer: 2.55 nM

Question: For `COCc1cncc(C(=O)N2CCc3c(nn(C)c3-c3cccc(Cl)c3)[C@@H]2C)c1` [Example 120, (S)-(3-(3-Chlorophenyl)-2,7-dimethyl-2,4,5,7-tetrahydro-6H-pyrazolo[3,4-c]pyridin-6-yl)(5-(methoxymethyl)pyridin-3-yl)methanone], which IC50 is on record?
Answer: 174 nM

Question: With `C[C@H]1c2nn(C)c(-c3cc(F)c(F)c(F)c3)c2CCN1C(=O)c1ccnc2c1ccn2C` [Example 225, (S)-(2,7-Dimethyl-3-(3,4,5-trifluorophenyl)-2,4,5,7-tetrahydro-6H-pyrazolo[3,4-c]pyridin-6-yl)(1-methyl-1H-pyrrolo[2,3-b]pyridin-4-yl)methanone] as the compound, how does the IC50 read?
Answer: 0.64 nM

Question: With `C[C@@H]1c2nn(C)c(-c3cc(F)cc(F)c3)c2CCN1C(=O)c1ccc2nccnc2c1` (single isomer, unassigned) [Example 169] as the compound, how does the IC50 read?
Answer: 3740 nM

Question: With `Cn1nc2c(c1-c1ccccc1)CCN(C(=O)c1cccc3[nH]ncc13)C2` [Example 65, (1H-Indazol-4-yl)(2-methyl-3-phenyl-2,4,5,7-tetrahydro-6H-pyrazolo[3,4-c]pyridin-6-yl)methanone] as the compound, how does the IC50 read?
Answer: 101 nM

Question: Which IC50 does the source give for `Cn1ncc(C(=O)N2CCc3c(nn(C)c3-c3ccccc3)C2)c1Cl` [Example 20, (5-Chloro-1-methyl-1H-pyrazol-4-yl)(2-methyl-3-phenyl-2,4,5,7-tetrahydro-6H-pyrazolo[3,4-c]pyridin-6-yl)methanone] here?
Answer: 2090 nM

Question: `CC1c2nn(C)c(-c3cc(F)cc(F)c3)c2CCN1C(=O)c1ccc2nccnc2c1` (stereo not shown) [Example 167, (3-(3,5-Difluorophenyl)-2,7-dimethyl-2,4,5,7-tetrahydro-6H-pyrazolo[3,4-c]pyridin-6-yl)(quinoxalin-6-yl)methanone] was tested. Which IC50 did it give?
Answer: 25.1 nM

Question: For `Cn1nc2c(c1-c1ccccc1)CCN(C(=O)c1ccn3nccc3c1)C2` [Example 73, (2-Methyl-3-phenyl-2,4,5,7-tetrahydro-6H-pyrazolo[3,4-c]pyridin-6-yl)(pyrazolo[1,5-a]pyridin-5-yl)methanone], which IC50 is on record?
Answer: 2500 nM

Question: For `COc1cc(C(=O)N2CCc3c(nn(C)c3-c3cc(F)c(F)c(F)c3)[C@@H]2C)cnc1C` [Example 310, [(7S)-2,7-Dimethyl-3-(3,4,5-trifluorophenyl)-5,7-dihydro-4H-pyrazolo[3,4-c]pyridin-6-yl]-(5-methoxy-6-methyl-3-pyridyl)methanone], which IC50 is on record?
Answer: 96.3 nM

Question: Which IC50 does the source give for `CC1c2nn(C)c(-c3cccc(Cl)c3)c2CCN1C(=O)c1ccc2nccnc2c1` (racemic) [Example 132, (3-(3-Chlorophenyl)-2,7-dimethyl-2,4,5,7-tetrahydro-6H-pyrazolo[3,4-c]pyridin-6-yl)(quinoxalin-6-yl)methanone] here?
Answer: 18.4 nM
